In BindingDB's records for doi:10.1007/s00044-013-0797-8 (n/a, 2013) one finds IC50 data, which are given here for 15 molecules.

Several values for one entry are separate records, joined by “and”; a condition that tells them apart may be missing. Identical values can stand only once.

This experiment deals with T1, Tyrosine-protein phosphatase non-receptor type 1 (Homo sapiens, UniProt P18031).
T1 sequence (P18031 whole entry): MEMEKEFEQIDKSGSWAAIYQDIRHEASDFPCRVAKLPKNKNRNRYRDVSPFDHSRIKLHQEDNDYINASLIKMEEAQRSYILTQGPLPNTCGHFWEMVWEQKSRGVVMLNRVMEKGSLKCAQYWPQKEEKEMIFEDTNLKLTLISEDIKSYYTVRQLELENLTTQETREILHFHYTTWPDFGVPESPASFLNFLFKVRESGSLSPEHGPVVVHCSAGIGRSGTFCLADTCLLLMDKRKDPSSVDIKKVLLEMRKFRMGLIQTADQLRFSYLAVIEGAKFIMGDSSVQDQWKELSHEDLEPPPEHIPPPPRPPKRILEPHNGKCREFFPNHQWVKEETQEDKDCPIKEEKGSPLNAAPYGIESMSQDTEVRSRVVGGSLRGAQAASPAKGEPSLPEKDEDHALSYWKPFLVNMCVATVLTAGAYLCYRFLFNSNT
Nature of the experiment: Non-competitive reversible inhibition of human PTP1B.
One may read the IC50 as the concentration at which inhibition is half-maximal. Higher therefore signals a need for much substance. `CC(C)c1ccccc1-n1nc2c(c(C#N)c1=N)CCSC2` displayed an IC50 of 2 µM. In turn, `CC1(C)Cc2c(nn(-c3cccc(C(F)(F)F)c3)c(=N)c2C#N)CO1` had an IC50 of 2.8 µM. The result for `CC(C)c1cccc(-n2nc3c(c(C#N)c2=N)CC(C)(C)OC3)c1` reads 8.2 µM. To `COc1ccccc1-n1nc2c(c(C#N)c1=N)CC(C)(C)OC2` belongs 6.19 µM and 6.2 µM; to `CC1(C)Cc2c(nn(-c3ccccc3F)c(=N)c2C#N)CO1`, 2.4 µM; to `CCc1ccc(-n2nc3c(c(C#N)c2=N)CC(C)(C)OC3)cc1`, 2.8 µM. As to `N#Cc1c2c(nn(-c3ccc(F)cc3)c1=N)CSCC2`, the IC50 was determined as 2 µM. To `CCc1cccc(-n2nc3c(c(C#N)c2=N)CC(C)(C)OC3)c1` belongs 8.2 µM; to `CC1(C)Cc2c(nn(-c3cccc(CO)c3)c(=N)c2C#N)CO1`, 2.4 µM.

With `CC1(C)Cc2c(nn(-c3cccc(Oc4ccccc4)c3)c(=N)c2C#N)CO1`, the IC50 amounted to 3.9 µM.

`CC1(C)Cc2c(nn(-c3ccc(CCO)cc3)c(=N)c2C#N)CO1` came in with an IC50 of 2.9 µM.

As to `CC1(C)Cc2c(nn(-c3ccccc3C(F)(F)F)c(=N)c2C#N)CO1`, the IC50 worked out at 3.9 µM. To `CC(=O)Nc1ccc(-n2nc3c(c(C#N)c2=N)CC(C)(C)OC3)cc1` belongs 6.1 µM; to `CCCCc1ccc(-n2nc3c(c(C#N)c2=N)CC(C)(C)OC3)cc1`, 7 µM. In turn, `CC1(C)Cc2c(nn(-c3ccccc3N3CCOCC3)c(=N)c2C#N)CO1` displayed an IC50 of 2.9 µM.
